According to patent US20220088017A1, “COMPOSITIONS AND METHODS FOR TREATING VIRAL INFECTIONS” (priority 2020, published 2022):

Tested on: coronavirus (COVID-19)
Experiment: Observational case: older coronavirus contact with impending right heart failure treated with statin
Format: in vivo
Settings: person
Description: An older person developed signs and symptoms of vascular inflammation and right heart failure. This included occasional headaches, flashes in vision, general fatigue, irritability, muscle pains, epigastric pain, general abdominal distention, inability to eat and circulatory congestion, salty or blood taste in sputum. […] The impending right heart failure was thought to be secondary to myocarditis, circulatory congestion due to poor blood flow as a result of vascular inflammation and sticky walls of blood vessels. The contact was within 6 hours having intermittent chest pains, sweating, and dizziness. Cardiac arrest was thought to be a possible poor outcome leading to mortality. The medical team discussed interventions necessary with statins, with the intention of reducing blood sticking to blood vessels. […] The patient commenced treatment immediately with good results in 3 days' time. The abdominal swelling which was A sign of right heart failure subsided, abdominal pain reduced and the patient was able to eat with circulatory congestion eased.

[1] = 20 mg daily, with OMEGA 3 based vitamin oil

## CC(C)c1nc(N(C)S(C)(=O)=O)nc(-c2ccc(F)cc2)c1/C=C/[C@@H](O)C[C@@H](O)CC(=O)O [rosuvastatin]
Coronavirus contact, 20 mg daily for two weeks, concomitantly with OMEGA 3 based vitamin oil daily
  right heart failure outcome: prevented this patient from going into right heart failure
Coronavirus contact, 20 mg daily for two weeks, with OMEGA 3 based vitamin oil
  circulation: restored circulation
[1]
  abdominal swelling (sign of right heart failure): subsided
  time to good results after start of treatment: 3 days
